Patent publication US11203598B2, “Compounds for repressing cancer cell growth” (Institute For Cancer Research, priority 2018, dated 2021)
Each block holds one molecule with its values, some of them ahead of it.

What was measured:
[1] = system: p53 pathway proteins in DLD-1 cells; assay: Western blot of p53 targets and LC3B; format: cell-based, human; details: DLD-1, 24 hours
Method: (§1) After treatment, cells were harvested by trypsinization, washed with PBS, and lysed with RIPA buffer (Sigma-Aldrich) for 30 minutes to 1 hour at 4° C. Protein lysates were spun down and supernatant was collected. Protein quantification was performed using a Pierce™ BCA Protein Assay Kit (Thermo Fisher Scientific). 1×NuPAGE® LDS sample buffer (Thermo Fisher Scientific) and 2-Mercaptoethanol as the reducing agent (Sigma-Aldrich) were added to protein lysates, followed by boiling for 15 minutes at 95° C. Equal total protein amounts samples were loaded into NuPAGE™ Novex™ 4-12% Bis-Tris Protein Gels (1.5 mm, Thermo Fisher Scientific) and gel eletrophoresis was performed with NuPAGE™ MES SDS Running Buffer. Proteins were transferred onto an Immobilon-P membrane (PVDF, EMD Millipore) using a Bio-Rad system with a 10% Tris-Glycine and 10% methanol transfer buffer diluted in distilled and deionized water. After transfer, membranes were blocked with 10% milk in TBST solution and then incubated overnight with primary antibody, washed with TBST and incubated with secondary antibody for 1 hour. Incubations were performed in 5% milk in TBST solution. Signal was detected by using a chemiluminescent detection kit, followed by autoradiography. The following antibodies were used: p53 (DO-1, 1:1000, Santa Cruz), p73 (1:1000, Bethyl Laboratories), p21 and NOXA (1:250, EMD Millipore), DR5, FADD, cleaved caspase 3, cleaved caspase 8, cleaved PARP, and LC3B (1:1000, Cell Signaling), and β-actin (1:10000, Sigma).
(§2) Proteins were isolated using NP40 Lysis Buffer (20 mmol/L Tris-HCl (pH 7.4), 150 mmol/L NaCl, 5 mmol/L EDTA, 50 mmol/L NaF, 1 mmol/L glycerophosphate, 5 mmol/L Na4P2O7, 0.5% NP40, and complete protease inhibitor cocktail (Roche)) and electrophoresed through 4-12% SDS-PAGE followed by semi-dry transfer to PVDF membranes. The PVDF membranes were incubated with different antibodies including p21 (OP64-100UG, EMD Millipore (world wide web at emdmillipore.com/US/en/product/Antip21WAF1-(Ab-1)-Mouse-mAb-(EA10), EMD_BIO-OP64)), PUMA (12450S, Cell Signaling Technology, world wide web at cellsignal.com/products/primary-antibodies/puma-d30c10-rabbit-mab/12450), DR5 (3696S, Cell Signaling Technology, world wide web at cellsignal.com/products/primary-antibodies/dr5-antibody/3696?N=4294956287&Ntt=3696s&fromPage=plp& requestid=541668), p53(sc-126, Santa Cruz, world wide web at scbt.com/scbt/fr/product/p53-antibody-do-1), and RAN (610341, BD Transduction Laboratories, world wide web at bdbiosciences.com/us/reagents/research/antibodies-buffers/cell-biologyreagents/cell-biology-antibodies/purified-mouse-anti-ran-20ran/p/610341) in blocking buffer at 4° C. overnight. Bound antibody will be detected using IRDye secondary antibodies (LI-COR Biosciences,) in Odyssey blocking buffer for 1 hour then imaged using the ODYSSEY infrared imaging system.

[2] = system: p53 pathway proteins in SW480 cells; assay: Western blot of p53, p53 targets, apoptosis and autophagy markers; format: cell-based, human; details: for Noxa protein expression: SW80 cells, 24 hours
Method: as §1, §2

SW480 cells [3] = assay: CellTiter-Glo luminescent cell viability assay; format: cell-based, human
Method: Cells were seeded in 96-well plates at a density of 5×10^3 cells per well. 20 μL of CellTiter-Glo® Reagent was added directly to the wells, following the manufacturer's protocol, and bioluminescence signal was determined using an IVIS imaging system.
Cell lines at a concentration of 4×10^3 cells/well were seeded out on an opaque 96-well plate and treated with CB002 and Analog 11 in ranging doses starting from 200 μmol/L with DMSO controls. At 72 hours after treatment, cells were mixed with 30 μL Cell Titer-Glo reagent and after ten minutes of room temperature incubation were imaged using IVIS imaging system (Xenogen).
To begin establishing the potential of CB002 as a candidate therapeutic agent, its therapeutic index was determined by treating cancer (DLD-1, SW480, and RXF393) and normal (WI38 and MRC5) cell lines with concentrations of CB002 ranging from 0-500 μM for a period of 72 hours and assessing cell viability by the CellTiter-Glo® luminescence assay (see, FIG. 2). CB002 has a significant therapeutic index among the cells tested.

8226 cells = assay: combination treatment with bortezomib, combination index (CompuSyn); format: cell-based; details: 48 hours, 0-100 nM Bortezomib with 0-200 μM analog
Method: Referring to FIG. 21 (panels A and B), 3×10^4 cells/well of 8226 cells were seeded in a 96-well plate. The cells were treated for 48 hours with a combination of 0-100 nM Bortezomib with 0-200 μM Analog 4 (see, panel A) and 0-100 nM Bortezomib with 0-200 μM Analog 11 (see, FIG. 21, panel B). CompuSyn software was used to analyze the combination index of both drugs.

[4] = system: MM1S Bortezomib resistant cells; assay: Cell Titer-Glo cell viability with bortezomib; format: cell-based; details: 25 μM Analog 4
Method: Referring to FIG. 21 (panel C), 3×10^4 cells/well of MM1S parental and Bortezomib MM1S resistant cells were seeded in a 96-well plate. Cell viability was determined by the Cell Titer-Glo® Assay.

WI38 normal cells = assay: apoptosis assay, sub-G1 analysis (propidium iodide, flow cytometry); format: cell-based, human; details: 25 μM, 48 hours
Method: (§3) Apoptotic cells were quantified by sub-G1 analysis. Cells were seeded at a density of 2.5×10^5 to 5×10^5 in a 6-well plate and treated for 48-72 hours. After treatment, adherent cells were trypsinized and collected along with floating cells, washed with PBS and fixed in 70% ethanol. Cells were then incubated in a Phosphate-citric acid buffer (0.2 M Na2HPO4+0.1 M Citric Acid, pH 7.8) at room temperature for 5 minutes, spun down and resuspended for staining with 50 μg/mL propidium iodide (PI) in the presence of 250 μg/mL pancreatic ribonuclease (RNase A). Sub-G1 analyses were performed using an Epics Elite Epics flow cytometer (Coulter-Beckman).
(§4) Cells were seeded out at 1×10^6 cells/well on six well plates and treated with CB002 and Analog 11 at ranging doses with DMSO controls. Cells were harvested after 72 hours of treatment, all cells including floating cells were fixed with ethanol and stained with Propidium Iodide and then analyzed using Epics Elite flow cytometer to measure the DNA content of the stained cells.

SW480 cells [5] = assay: as above; format: cell-based, human; details: 25 μM, 48 hours
Method: as §3, §4

[6] = system: Noxa in 8226 bortezomib resistant multiple myeloma cell line; assay: Western blot of Noxa; format: cell-based; details: 25 μM Analog 4, 100 μM Analog 11
Method: Referring to FIG. 20 (panel C), 1×10^6 cells/well were seeded in a 12-well plate. 8226 parental and resistant multiple myeloma cell lines were treated with 100 μM CB002, 25 μM Analog 4, or 100 μM Analog 11.

cell cycle G2 checkpoint = assay: propidium iodide staining cell cycle analysis; format: cell-based; details: 24 hour treatment, alone and with etoposide
Method: Referring to FIG. 22 (panels A-F), propidium iodide staining cell cycle analysis for 24 hour treatment with DMSO (panel A), CB002 (panel B), CB002 and etoposide (panel C), etoposide (panel D), caffeine (panel E), and caffeine and etoposixe (panel F). […] The deregulation of the G2 checkpoint as a mechanism by caffeine prevents […] tumor cells that are treated with DNA damaging drugs, such as etoposide, from arresting to have time to repair, and thus sensitizes cancer cells to cell death.

SMILES: CC(=O)CCCCn1c(=O)c2c(ncn2C)n(C)c1=O [pentoxifylline, reference compound]
Noxa protein expression [1]: dis not induce Noxa expression
Noxa protein expression [2]: dis not induce Noxa expression

IC50 ranking among CB002 analogs (SW480 cells [3]; Cell Titer-Glo, serial dilution): most potent compound
SMILES: Cn1c(=O)c2[nH]c(Nc3cccc(C(F)(F)F)c3)nc2n(C)c1=O [Analog 4]
synergy with Bortezomib (combination index) (8226 cells): synergyze the most with Bortezomib
sensitization to Bortezomib (cell viability) [4]: able to sensitize MM1S resistant cells to Bortezomib treatment
apoptosis by sub-G1 content (WI38 normal cells): not normal human fibroblast WI38 cells
apoptosis by sub-G1 content (SW480 cells [5]): underwent apoptosis
expression of DR5, Noxa and cleaved Parp ([2]; 12 or 25 μM, 16 and 24 hours): increased expression of DR5, Noxa, and cleaved Parp
Noxa expression ([2]; 24 hour, 100 μM CB002, 25 NM Analog 4, 100 μM Analog 11): Induction of Noxa expression
Noxa expression [6]: able to induce Noxa expression

SMILES: Cn1c(=O)c2c(ncn2C)n(C)c1=O [caffeine, reference compound]
effect on cell cycle G2 checkpoint (cell cycle G2 checkpoint): can deregulate the cell cycle G2 checkpoint
Noxa protein expression [1]: dis not induce Noxa expression
Noxa protein expression [2]: dis not induce Noxa expression

SMILES: Cn1c(=O)c2[nH]cnc2n(C)c1=O [theophylline, reference compound]
Noxa protein expression [1]: dis not induce Noxa expression
Noxa protein expression [2]: dis not induce Noxa expression

SMILES: O=c1[nH]cc(F)c(=O)[nH]1 [Analog 5-FU, 5-fluorouracil, reference compound]
toxicity (cell viability reduction), 5-FU versus CPT-11 (SW480 cells [3]; 72 hours, ascending doses): greater toxicity
